“Also recorded” adds a separate entry of the source.
How the values were obtained:
[1] = target: T1, Kir6.1/SUR2B (Homo sapiens, UniProt O60706); test: Thallium flux activation dose-response without channel pre-activation; type: cell-based; conditions: no channel pre-activation; doses up to 30 µM
T1 construct: expressed in transfected cells; Kir6.1 tetracycline-inducible, SUR2B constitutive
Description: (§1) Thallium flux assays were conducted using the established methods. Stably transfected T-REx-HEK-293 cells expressing Kir6.2/SUR1 or Kir6.1/SUR2B were cultured overnight in polyamine-coated plates (black-walled, clear-bottomed; BD, Bedford, MA) at a density of 20,000 cells in 20 µl per well of cell culture media. The expression of Kir6.2/SUR1 or Kir6.1/SUR2B channels was induced by treating cells with 1 µg/ml tetracycline overnight. The following day, cells were rinsed with an assay buffer (Hanks’ Balanced Salt Solution supplied with 20 mM HEPES), loaded with the thallium-sensor dye Brilliant Thallos-AM AM (Ion Bioscience, San Marcos, TX) for 1 h, and then washed again with assay buffer to remove unincorporated dye. The cell plate was subsequently placed in a Panoptic Kinetic Imaging Plate Reader (Wavefront Bioscience, Franklin, TN) and imaged at a frequency of 1 Hz using 482/35 nm (excitation) and 536/40 nm (emission) filter sets. Kir6.1/SUR2B channels were activated with 10 µM pinacidil, whereas Kir6.1/SUR1 was activated with 30 µM VU0071063 [34]. To activate KATP channels independent of activators with ATP-depletion method, cells were treated with a cocktail of metabolic inhibitors (2.5 mM sodium cyanide and 20 mM 2-deoxy glucose) for 25 min before imagine. Control and test compounds diluted freshly from DMSO stocks into assay buffer were added to wells for four minutes before adding 0.5 mM chloride-free thallium stimulus buffer (Ion Bioscience) to initiate thallium flux through the expressed KATP channels. Thallium flux was recorded from all 384-wells for 2 min before terminating the experiment. […] Selectivity assays against other Kir channels were performed as described previously.
(§2) We therefore systematically explored this possibility in dose–response experiments against Kir6.2/SUR1 in the absence of channel pre-activation. Kir6.1/SUR2B was also evaluated for comparison.
(§3) Figure 6. Paradoxical activation of Kir6.2/SUR1. […] Fluorescence intensity at each dose was normalized to that in the absence of drug. […] (b) Activities of indicated compounds at 30 μM toward Kir6.1/SUR2B normalized to that of 30 μM pinacidil. […] (d) Activities of indicated compounds at 30 μM toward Kir6.2/SUR1 normalized to that of 30 μM VU0071063.

[2] = target: Kir6.2/SUR1 (Homo sapiens, UniProt Q09428); test: as above; type: cell-based; conditions: no channel pre-activation; doses up to 30 µM
Description: as §1, §2, §3

Kir6.2/SUR1, sequence (Q09428 whole entry, species assumed): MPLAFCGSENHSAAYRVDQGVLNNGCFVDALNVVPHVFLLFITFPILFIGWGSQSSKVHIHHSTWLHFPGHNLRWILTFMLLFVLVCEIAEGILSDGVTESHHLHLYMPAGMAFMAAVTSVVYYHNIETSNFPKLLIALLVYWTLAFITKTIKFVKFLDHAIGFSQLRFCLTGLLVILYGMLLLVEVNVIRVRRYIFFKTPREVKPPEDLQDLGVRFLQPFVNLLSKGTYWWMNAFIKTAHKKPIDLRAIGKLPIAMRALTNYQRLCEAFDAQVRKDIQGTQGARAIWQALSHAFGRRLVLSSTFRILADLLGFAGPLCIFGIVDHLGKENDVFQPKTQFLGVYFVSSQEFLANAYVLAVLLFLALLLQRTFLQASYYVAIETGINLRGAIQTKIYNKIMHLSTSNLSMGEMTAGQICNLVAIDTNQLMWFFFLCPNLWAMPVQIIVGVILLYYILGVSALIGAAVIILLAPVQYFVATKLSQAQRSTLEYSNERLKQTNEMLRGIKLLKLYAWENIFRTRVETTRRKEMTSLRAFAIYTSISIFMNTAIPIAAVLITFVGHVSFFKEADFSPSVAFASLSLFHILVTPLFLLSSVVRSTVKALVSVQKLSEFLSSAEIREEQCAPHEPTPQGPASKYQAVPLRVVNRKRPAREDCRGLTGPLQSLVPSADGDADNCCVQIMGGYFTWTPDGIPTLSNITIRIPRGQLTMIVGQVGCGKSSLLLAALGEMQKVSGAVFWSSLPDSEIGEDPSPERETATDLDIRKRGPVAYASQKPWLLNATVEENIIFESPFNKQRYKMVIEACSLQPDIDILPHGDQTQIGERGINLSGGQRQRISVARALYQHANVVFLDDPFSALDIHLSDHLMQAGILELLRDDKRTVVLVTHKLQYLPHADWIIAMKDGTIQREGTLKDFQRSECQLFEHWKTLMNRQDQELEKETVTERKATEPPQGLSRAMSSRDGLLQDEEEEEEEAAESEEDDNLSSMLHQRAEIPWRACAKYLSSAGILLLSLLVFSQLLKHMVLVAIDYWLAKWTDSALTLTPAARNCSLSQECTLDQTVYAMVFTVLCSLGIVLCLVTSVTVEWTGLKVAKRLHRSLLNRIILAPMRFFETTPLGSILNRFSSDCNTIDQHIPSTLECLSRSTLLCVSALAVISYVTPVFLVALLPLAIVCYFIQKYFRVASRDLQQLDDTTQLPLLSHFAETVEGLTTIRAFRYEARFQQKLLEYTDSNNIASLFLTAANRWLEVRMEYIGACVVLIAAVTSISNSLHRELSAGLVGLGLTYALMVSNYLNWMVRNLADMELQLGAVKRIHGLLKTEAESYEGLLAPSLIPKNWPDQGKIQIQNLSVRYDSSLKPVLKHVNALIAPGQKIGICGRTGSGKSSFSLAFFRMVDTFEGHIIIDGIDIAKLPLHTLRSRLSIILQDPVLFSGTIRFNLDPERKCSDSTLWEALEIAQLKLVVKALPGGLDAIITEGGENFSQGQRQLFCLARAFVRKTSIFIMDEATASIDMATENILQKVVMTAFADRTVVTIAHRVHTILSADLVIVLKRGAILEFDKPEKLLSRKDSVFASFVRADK
Kir6.2/SUR1, sequence (Q14654 whole entry partner, species assumed): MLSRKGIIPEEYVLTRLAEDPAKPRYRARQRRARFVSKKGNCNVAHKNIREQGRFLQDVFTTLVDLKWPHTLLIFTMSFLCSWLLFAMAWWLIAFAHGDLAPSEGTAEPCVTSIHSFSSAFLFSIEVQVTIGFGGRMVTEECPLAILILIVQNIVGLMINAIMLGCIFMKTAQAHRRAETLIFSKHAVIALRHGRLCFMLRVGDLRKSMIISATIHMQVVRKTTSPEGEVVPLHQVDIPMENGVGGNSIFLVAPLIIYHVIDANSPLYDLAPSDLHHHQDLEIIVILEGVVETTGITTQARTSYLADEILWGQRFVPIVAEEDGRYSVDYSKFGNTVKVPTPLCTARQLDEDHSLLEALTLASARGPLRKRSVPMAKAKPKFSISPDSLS
T1 sequence (O60706 1-1549 isoform O60706-2, species assumed): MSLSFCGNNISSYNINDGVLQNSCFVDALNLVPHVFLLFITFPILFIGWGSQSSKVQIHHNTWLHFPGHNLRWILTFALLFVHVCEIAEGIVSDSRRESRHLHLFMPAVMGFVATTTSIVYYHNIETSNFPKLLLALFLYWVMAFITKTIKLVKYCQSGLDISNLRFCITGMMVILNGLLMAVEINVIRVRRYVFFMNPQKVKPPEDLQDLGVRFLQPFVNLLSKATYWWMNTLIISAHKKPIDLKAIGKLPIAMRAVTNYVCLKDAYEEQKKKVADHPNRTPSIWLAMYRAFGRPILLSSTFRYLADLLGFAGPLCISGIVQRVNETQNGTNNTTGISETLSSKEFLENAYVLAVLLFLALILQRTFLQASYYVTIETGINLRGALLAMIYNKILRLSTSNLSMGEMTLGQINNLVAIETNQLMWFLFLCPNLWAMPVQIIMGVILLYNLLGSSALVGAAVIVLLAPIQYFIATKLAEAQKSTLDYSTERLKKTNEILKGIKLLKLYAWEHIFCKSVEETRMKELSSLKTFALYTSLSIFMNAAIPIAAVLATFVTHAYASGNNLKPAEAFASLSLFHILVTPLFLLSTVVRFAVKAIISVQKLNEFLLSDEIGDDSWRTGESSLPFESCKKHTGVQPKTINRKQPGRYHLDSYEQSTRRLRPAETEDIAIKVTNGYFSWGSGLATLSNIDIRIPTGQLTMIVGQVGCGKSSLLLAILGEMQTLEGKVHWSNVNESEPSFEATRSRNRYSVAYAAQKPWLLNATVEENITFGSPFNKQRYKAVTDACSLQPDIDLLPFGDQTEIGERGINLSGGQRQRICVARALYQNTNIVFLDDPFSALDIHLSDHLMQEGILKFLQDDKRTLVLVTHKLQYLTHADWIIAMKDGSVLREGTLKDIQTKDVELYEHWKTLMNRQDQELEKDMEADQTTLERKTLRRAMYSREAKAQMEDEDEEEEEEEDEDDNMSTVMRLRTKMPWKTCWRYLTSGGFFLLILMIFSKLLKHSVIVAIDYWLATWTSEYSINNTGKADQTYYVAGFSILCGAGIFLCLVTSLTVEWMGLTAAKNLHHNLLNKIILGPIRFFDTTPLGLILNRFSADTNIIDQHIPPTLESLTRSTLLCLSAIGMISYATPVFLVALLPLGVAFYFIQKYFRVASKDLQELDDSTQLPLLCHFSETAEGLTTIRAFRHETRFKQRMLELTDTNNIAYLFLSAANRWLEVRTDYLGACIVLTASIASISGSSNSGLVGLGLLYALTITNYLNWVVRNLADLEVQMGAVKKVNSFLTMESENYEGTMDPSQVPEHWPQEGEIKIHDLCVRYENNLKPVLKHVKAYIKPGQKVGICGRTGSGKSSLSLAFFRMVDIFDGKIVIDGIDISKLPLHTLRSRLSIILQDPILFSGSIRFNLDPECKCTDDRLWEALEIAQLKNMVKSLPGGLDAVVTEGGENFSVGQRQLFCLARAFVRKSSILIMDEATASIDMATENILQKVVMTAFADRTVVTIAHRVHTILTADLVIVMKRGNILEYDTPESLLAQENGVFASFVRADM
T1 sequence (Q15842 whole entry partner, species assumed): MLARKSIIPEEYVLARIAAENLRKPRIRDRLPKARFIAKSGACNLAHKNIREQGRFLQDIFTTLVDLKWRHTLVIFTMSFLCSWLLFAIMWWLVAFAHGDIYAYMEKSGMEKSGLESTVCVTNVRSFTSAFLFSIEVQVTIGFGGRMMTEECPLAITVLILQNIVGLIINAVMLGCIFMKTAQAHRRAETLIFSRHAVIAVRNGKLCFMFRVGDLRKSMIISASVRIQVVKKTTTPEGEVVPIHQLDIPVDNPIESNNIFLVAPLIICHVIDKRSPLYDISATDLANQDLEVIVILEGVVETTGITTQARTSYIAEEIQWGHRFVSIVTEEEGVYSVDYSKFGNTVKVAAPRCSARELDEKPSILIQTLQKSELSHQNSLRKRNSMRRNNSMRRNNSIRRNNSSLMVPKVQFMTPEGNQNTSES

Compound | Activation of Kir6.1/SUR2B [1] | Activation of Kir6.2/SUR1 [2]
c1ccc2[nH]c(CSc3ncnc4c3oc3ccccc34)nc2c1 [VU0212387, 4-(((1 H-benzo[d]imidazol-2-yl)methyl)thio)benzofuro[3,2-d]pyrimidine] | failed to activate | dose-dependently activated; also recorded: induced dose-dependent Kir6.2/SUR1 activation; also recorded: activate Kir6.2/SUR1 at higher drug doses
O=C(NCC(O)(c1ccccc1)C(F)(F)F)c1ccc(OC(F)(F)F)cc1 (centres unmarked) [VU0543336, N-(3,3,3-trifluoro-2-hydroxy-2-phenylpropyl)-4-(trifluoromethoxy)benzamide] | failed to activate | dose-dependently activated; also recorded: induced dose-dependent Kir6.2/SUR1 activation; also recorded: activate Kir6.2/SUR1 at higher drug doses
O=C(NCc1cc(-c2ccncc2)n(C2CCCC2)n1)Nc1cccs1 [VU0544086, 1-((1-cyclopentyl-5-(pyridin-4-yl)-1 H-pyrazol-3-yl)methyl)-3-(thiophen-2-yl)urea] | failed to activate | failed to activate
O=C1c2oc3ccccc3c(=O)c2C(c2cccc(Br)c2)N1CCO (centres unmarked) [VU0605768, 1-(3-bromophenyl)-2-(2-hydroxyethyl)-1,2-dihydrochromeno[2,3-c]pyrrole-3,9-dione] | failed to activate | dose-dependently activated; also recorded: induced dose-dependent Kir6.2/SUR1 activation; also recorded: activate Kir6.2/SUR1 at higher drug doses

From publication PMC11418212, “Characterization of four structurally diverse inhibitors of SUR2-containing KATP channels” (Channels, 2024)
